Assays:
[1] = test system: Epidermoid carcinoma cell line; assay: Concentration required for inhibition of colony formation (cytotoxicity) against human epidermoid carcinoma cell number 2; assay type: functional; conditions: read-out: ED50 (the source's name)
[2] = molecular target: T1, Dihydrofolate reductase (Bos taurus) (UniProt P00376)
T1 sequence (whole entry): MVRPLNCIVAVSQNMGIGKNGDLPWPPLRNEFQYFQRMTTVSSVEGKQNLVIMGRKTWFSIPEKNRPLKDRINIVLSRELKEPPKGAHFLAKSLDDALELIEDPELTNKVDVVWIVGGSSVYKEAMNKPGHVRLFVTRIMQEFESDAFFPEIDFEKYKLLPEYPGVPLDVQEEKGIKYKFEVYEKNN
Description: Inhibition of bovine dihydrofolate reductase

Nc1nc(O)c2nc(CNc3ccc(C(=O)NC(CCC(=O)O)C(=O)O)cc3)ccc2n1 (configuration not stated)
EC50 [1]: 23 µM

Nc1nc(O)c2nc(C(=O)Nc3ccc(C(=O)NC(CCC(=O)O)C(=O)O)cc3)ccc2n1 (configuration not stated)
EC50 [1]: 100 µM

Nc1nc(O)c2c(n1)CCC1CN(c3ccc(C(=O)NC(CCC(=O)O)C(=O)O)cc3)C=[N+]21 (configuration not stated)
EC50 [1]: 8 µM
ID50 [2]: 4.6 µM

CN(Cc1cnc2nc(N)nc(N)c2n1)c1ccc(C(=O)N[C@@H](CCC(=O)O)C(=O)O)cc1 [METHOTREXATE]
EC50 [1]: 0.001 µM

Nc1nc(O)c2nc(CN(C=O)c3ccc(C(=O)NC(CCC(=O)O)C(=O)O)cc3)ccc2n1 (configuration not stated)
EC50 [1]: 32 µM

Nc1nc(O)c2c(n1)CCC(CN(C=O)c1ccc(C(=O)NC(CCC(=O)O)C(=O)O)cc1)N2 (configuration not stated)
EC50 [1]: 28 µM
